Columns and labels:
[1] = system: porcine CYP1A; assay: Inhibition of CYP1A activity (7-ethoxyresorufin O-deethylation) in porcine hepatic microsomes; assay type: in vitro ADME, pig; details: for effect on CYP1A activity: 16 μM compound, hepatic microsomes from male and female pigs, 2 μM 7-ethoxyresorufin; for effect of a preincubation step on inhibition of CYP1A: 5 min preincubation with NADPH at 37°C, male and female pigs; for effect of a preincubation step on inhibition of CYP1A / Ki: inhibitor 16, 32, 128 μM; for Ki: 7-ethoxyresorufin 0.1-4 μM
Method: (§1) Microsomes were prepared with a calcium aggregation method using Tris-EDTA homogenization buffer. Experiments were performed using pools of microsomes consisting of microsomes from two individual pigs. The total microsomal protein concentration was analyzed the same day using a commercially available kit (Bio-Rad Laboratories Inc., Hercules, CA, USA) according to the manufacturer's instructions. Microsomes were diluted to a protein concentration of 10 mg/mL and stored at −80°C until analysis.
(§2) Specific CYP450 activities were determined by incubating microsomes (diluted in 0.5 M potassium phosphate buffer (pH 7.4)) and adding 0.5 mM NADPH together with one of the following selective substrates (specific CYP450 target given in parentheses): 2 μM 7-ethoxyresorufin (CYP1A), 200 μM coumarin (CYP2A), 10 μM 7-benzyloxy-4-trifluoromethylcoumarin (CYP3A), and 200 μM p-nitrophenol (CYP2E1). […] The corresponding metabolites were quantified by HPLC as previously described.
(§3) For quercetin, this concentration is approximately what can be found in liver of pigs fed a single dose of a quercetin enriched diet. The stock solutions of these compounds were prepared in methanol, and the final concentration of methanol was 0.1% in the incubation volumes. The same amount of methanol was added to the control incubations. Percentage inhibitions were calculated as differences between the activities in the control incubations (arbitrarily set to 100%) and in the presence of the specific compound.
(§4) For that microsomes were preincubated with the tested compound in the presence of NADPH for 5 min (CYP1A, CYP3A) or 15 min (CYP2E1) at 37°C before the addition of specific substrate. […] The incubation time and the amount of the microsomal protein were in the linear range for the rate of metabolite formation. All measurements were performed in duplicate.
(§5) Kinetic parameters (Michaelis-Menten constant K m, maximal velocity of the reaction V max, and dissociation constant for inhibitor binding K i) were estimated by fitting data to the Michaelis-Menten equation using GraphPad Prism (version 4.0 for Windows, GraphPad Software (San Diego, California, USA)). Visual inspection of the plots was used to estimate whether inhibition degree was affected by inclusion of the preincubation step.

[2] = system: porcine CYP2A; details: 16 μM compound; hepatic microsomes from male and female pigs; 200 μM coumarin
Method: as §1
Specific CYP450 activities were determined by incubating microsomes (diluted in 0.5 M potassium phosphate buffer (pH 7.4)) and adding 0.5 mM NADPH together with one of the following selective substrates (specific CYP450 target given in parentheses): 2 μM 7-ethoxyresorufin (CYP1A), 200 μM coumarin (CYP2A), 10 μM 7-benzyloxy-4-trifluoromethylcoumarin (CYP3A), and 200 μM p-nitrophenol (CYP2E1). For kinetic studies, concentrations of 7-ethoxyresorufin varied from 0.05 to 4 μM, concentrations of p-nitrophenol varied from 2.5 to 4000 μM, and concentrations of BFC varied from 0.1 to 150 μM. The corresponding metabolites were quantified by HPLC as previously described.
as §3

[3] = molecular target: porcine CYP2E1 (Sus scrofa, UniProt P79383); assay: Inhibition of CYP2E1 activity (p-nitrophenol hydroxylation) in porcine hepatic microsomes; assay type: in vitro ADME, pig; details: for effect on CYP2E1 activity: 16 μM compound
porcine CYP2E1, sequence (P79383 whole entry): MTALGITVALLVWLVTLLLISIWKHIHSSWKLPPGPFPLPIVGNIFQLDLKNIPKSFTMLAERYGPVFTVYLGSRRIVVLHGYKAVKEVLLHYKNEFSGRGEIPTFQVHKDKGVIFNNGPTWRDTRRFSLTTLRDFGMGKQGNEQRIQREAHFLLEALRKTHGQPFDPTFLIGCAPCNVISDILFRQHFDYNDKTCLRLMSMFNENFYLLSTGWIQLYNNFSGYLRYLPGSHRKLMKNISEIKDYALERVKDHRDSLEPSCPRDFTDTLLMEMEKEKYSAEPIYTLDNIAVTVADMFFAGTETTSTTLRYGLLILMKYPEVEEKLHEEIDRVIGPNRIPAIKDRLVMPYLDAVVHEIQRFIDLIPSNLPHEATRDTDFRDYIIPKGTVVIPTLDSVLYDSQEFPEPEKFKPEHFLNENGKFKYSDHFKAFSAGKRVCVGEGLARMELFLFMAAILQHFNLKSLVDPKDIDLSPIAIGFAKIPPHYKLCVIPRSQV
Method: as §1, §2, §3, §4, §5

[4] = system: porcine CYP3A; assay: Inhibition of CYP3A activity (7-benzyloxy-4-trifluoromethylcoumarin O-dealkylation) in porcine hepatic microsomes; assay type: in vitro ADME, pig; details: for effect on CYP3A activity: 16 μM compound, hepatic microsomes from male and female pigs, 10 μM BFC; for reversibility of CYP3A inhibition (effect of a preincubation step): 5 min preincubation with NADPH at 37°C, male and female pigs; for Ki: pig, inhibitor 16, 32, 128 μM, BFC 0.1-150 μM
Method: as §1, §2, §3, §4, §5

[5] = hepatic microsomes from male and female pigs, 200 μM p-nitrophenol
[6] = pig, pH 7.4, hepatic microsomes from female pigs
[7] = pig, pH 7.4, hepatic microsomes from male pigs
[8] = hepatic microsomes from female pigs

effect on CYP1A activity [1] | SMILES | effect on CYP2A activity [2] | effect on CYP2E1 activity [3, 5] | effect on CYP3A activity [4] | further results
did not alter activity | O=C(O)/C=C/c1ccc(O)c(O)c1 [caffeic acid] | did not alter activity | did not alter activity | did not alter activity | –
– | O=C(O)c1cc(O)c(O)c(O)c1 [gallic acid] | – | did not alter activity | did not alter activity | –
– | COc1cc(-c2oc3cc(O)cc(O)c3c(=O)c2O)ccc1O [isorhamnetin] | did not affect | did not affect | decreased | effect of a preincubation step on inhibition of CYP1A [1]: did not affect; Ki [1, 6]: 10.8 ± 2.8 µM; Ki [1, 7]: 99.9 ± 77.6 µM; reversibility of CYP3A inhibition (effect of a preincubation step) [4]: reversible inhibition; Ki ([4]; pH 7.4, hepatic microsomes from female pigs): 93.7 ± 61.3 µM; Ki ([4]; pH 7.4, hepatic microsomes from male pigs): 71.2 ± 20.2 µM
– | O=c1c(O)c(-c2cc(O)c(O)c(O)c2)oc2cc(O)cc(O)c12 [myricetin] | did not affect | did not affect | decreased | effect of a preincubation step on inhibition of CYP1A [1]: did not affect; Ki [1, 6]: 4.4 ± 3.4 µM; Ki [1, 7]: 2.5 ± 0.9 µM; reversibility of CYP3A inhibition (effect of a preincubation step) [4]: reversible inhibition; Ki ([4]; liver microsomes, pH 7.4, probe 7-benzyloxy-4-trifluoromethylcoumarin (BFC), hepatic microsomes from male pigs): 113 ± 20.8 µM
did not alter activity | O=C(O)/C=C/c1ccc(O)cc1 [p-coumaric acid] | did not alter activity | did not alter activity | did not alter activity | –
– | O=c1c(O)c(-c2ccc(O)c(O)c2)oc2cc(O)cc(O)c12 [quercetin] | – | – | did not affect | mode of inhibition of CYP1A [1, 8]: irreversible inhibition; IC50 ([1]; pig, liver microsomes, pH 7.4, probe 7-ethoxyresorufin (2 μM), hepatic microsomes from female pigs, with 5 min preincubation with NADPH): 2.5 µM; Ki ([1]; pig, liver microsomes, pH 7.4, probe 7-ethoxyresorufin (0.1-4 μM; O-deethylation), hepatic microsomes from male pigs): 0.16 ± 0.03 µM; effect on CYP2E1 activity [3, 8]: No effect; reversibility of CYP2E1 inhibition (effect of a preincubation step) ([3]; 15 min preincubation with NADPH at 37°C, male pigs): reversible inhibition; Ki ([3]; hepatic microsomes from male pigs, inhibitor 16, 32, 128 μM, p-nitrophenol 0.25-4000 μM): 94.2 ± 13.5 µM

SMILES | effect on CYP1A activity [1] | effect on CYP2A activity [2] | effect on CYP2E1 activity [3, 5] | effect on CYP3A activity [4] | further results
C[C@@H]1O[C@@H](OC[C@H]2O[C@@H](Oc3c(-c4ccc(O)c(O)c4)oc4cc(O)cc(O)c4c3=O)[C@H](O)[C@@H](O)[C@@H]2O)[C@H](O)[C@H](O)[C@H]1O [rutin] | did not alter activity | did not alter activity | did not alter activity | did not alter activity | –
